Test results taken from US20230081426A1, “COMPOUNDS AND METHODS FOR KRAS MODULATION AND INDICATIONS THEREFOR” (Plexxikon Inc., priority 2020, published 2023).

Tests used:
[1] = target: T1, G12D-mutant human KRAS (amino acid residues 1-188) (Homo sapiens, UniProt P01116, G12D); assay: KRAS Binding Disruption Assay (AlphaScreen; biotinylated KRpep-2d analogue or RAF1-RBD), G12D; settings: KRAS G12D; geometric mean; read-out: KRAS GMean IC50 (uM) MUTATION: G12D
T1 construct: G12D or G12C-mutant human KRAS (amino acid residues 1-188) with FLAG tag; made in house; host or cells: E. coli
Outline: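 Mutant KRAS (5-20 nM) incubated 1 h at 25° C with test compound and 5-20 nM biotinylated KRpep-2d analogue or RAF1-RBD in 20 mM HEPES pH 7.5, 100 mM NaCl, 5 mM MgCl2, 0.01% Tween-20, 0.01% BSA.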

[2] = target: T2, G12C-mutant human KRAS (amino acid residues 1-188) (Homo sapiens, UniProt P01116, G12C); assay: KRAS Binding Disruption Assay (AlphaScreen; biotinylated KRpep-2d analogue or RAF1-RBD), G12C; settings: geometric mean, read-out: KRAS GMean IC50 (uM) MUTATION: G12C
T2 construct: G12D or G12C-mutant human KRAS (amino acid residues 1-188) with FLAG tag; made in house; host or cells: E. coli
Protocol: Compound binding disrupts the interaction of KRpep-2d or RAF1-RBD with KRAS, leading to a decrease in Alpha signal.
All assay components were prepared in 20 mM HEPES (pH 7.5), 100 mM NaCl, 5 mM MgCl2, 0.01% Tween-20, and 0.01% BSA. Biotinylated analogues of KRpep-2d were custom synthesized. The binding disruption assays were performed using 5-20 nM of mutant KRAS and 5-20 nM of either biotinylated KRpep-2d analogue or RAF1-RBD. 19 μL of KRAS protein and 4 μL of biotinylated KRpep-2d or RAF1-RBD were added to the wells of a 384-well plate containing 1 μL of various concentrations of test compound or DMSO vehicle. 16 wells containing KRAS, biotinylated KRpep-2d or RAF1-RBD, and 5% DMSO served as high controls. 16 wells containing KRAS only and 5% DMSO served as low controls. Binding reactions were incubated for 1 hour at 25° C., then Anti-Flag Acceptor and Streptavidin Donor Alpha beads were added at a final concentration of 10 μg/mL for an additional hour at room temperature. Alpha signal was read out on a Perkin Elmer Envision HTS instrument. The percentage inhibition at individual compound concentrations relative to high and low controls was calculated. The data were analyzed by using nonlinear regression to generate IC50 values.

T1 sequence (P01116 1-188 isoform P01116-2 G12D): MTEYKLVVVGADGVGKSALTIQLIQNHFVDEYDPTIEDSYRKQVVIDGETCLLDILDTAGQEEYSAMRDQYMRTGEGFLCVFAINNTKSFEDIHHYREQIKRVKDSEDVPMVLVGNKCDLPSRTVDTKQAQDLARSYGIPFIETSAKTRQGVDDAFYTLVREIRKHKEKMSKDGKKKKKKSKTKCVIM
T2 sequence (P01116 1-188 isoform P01116-2 G12C): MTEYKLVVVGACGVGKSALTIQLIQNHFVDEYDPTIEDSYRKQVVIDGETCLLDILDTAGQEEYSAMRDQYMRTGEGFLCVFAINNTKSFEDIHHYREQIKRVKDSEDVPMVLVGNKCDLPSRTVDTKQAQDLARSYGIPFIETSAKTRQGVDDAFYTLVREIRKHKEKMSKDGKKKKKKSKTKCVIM

Structure (SMILES) | IC50 [1] [µM] | IC50 [2] [µM]
CCc1cccc2[nH]cc(-c3ncc4c(N5C[C@H]6CC[C@@H](C5)N6)nc(OC[C@@]56CCCN5C[C@H](F)C6)nc4c3F)c12 [P-0505, 4-((1R,5S)-3,8-diazabicyclo[3.2.1]octan-3-yl)-7-(4-ethyl-1H-indol-3-yl)-8-fluoro-2-(((2R,7aS)-2-fluorotetrahydro-1H-pyrrolizin-7a(5H)-yl)methoxy)pyrido[4,3-d]pyrimidine] | 0.0001 to 10 | 0.0001 to 10
O=C(NCCCN1CCC[C@H]1COc1nc(N2C[C@H]3CC[C@@H](C2)N3)c2ccc(-c3cc(O)cc4ccccc34)c(F)c2n1)OCc1ccccc1 [P-0676, benzyl (3-((S)-2-(((4-((1R,5S)-3,8-diazabicyclo[3.2.1]octan-3-yl)-8-fluoro-7-(3-hydroxynaphthalen-1-yl)quinazolin-2-yl)oxy)methyl)pyrrolidin-1-yl)propyl)carbamate] | 0.0001 to 10 | 10 to 100
O=C(CCn1ccnc1)N1[C@@H]2CC[C@H]1CN(c1nc(OCC34CCCN3CCC4)nc3c(F)c(-c4cc(O)cc5ccccc45)ccc13)C2 [P-0807, 1-((1R,5S)-3-(8-fluoro-7-(3-hydroxynaphthalen-1-yl)-2-((tetrahydro-1H-pyrrolizin-7a(5H)-yl)methoxy)quinazolin-4-yl)-3,8-diazabicyclo[3.2.1]octan-8-yl)-3-(1H-imidazol-1-yl)propan-1-one] | 0.0001 to 10 | 0.0001 to 10
Oc1cc(-c2ccc3c(N4C[C@H]5CC[C@@H](C4)N5)nc(OCC4CCOCC4)nc3c2F)c2ccccc2c1 [P-0805, 4-(4-((1R,5S)-3,8-diazabicyclo[3.2.1]octan-3-yl)-8-fluoro-2-((tetrahydro-2H-pyran-4-yl)methoxy)quinazolin-7-yl)naphthalen-2-ol] | 0.0001 to 10 | 10 to 100
CS(=O)(=O)NC1CN(c2nc(N3C[C@H]4CC[C@@H](C3)N4)c3ccc(-c4cc(O)cc5ccccc45)c(F)c3n2)C1 [P-0702, N-(1-(4-((1R,5S)-3,8-diazabicyclo[3.2.1]octan-3-yl)-8-fluoro-7-(3-hydroxynaphthalen-1-yl)quinazolin-2-yl)azetidin-3-yl)methanesulfonamide] | 0.0001 to 10 | 10 to 100
Oc1cc(-c2ccc3c(N4C[C@H]5CC[C@@H](C4)N5)nc(N4C[C@@H](O)[C@@H](O)C4)nc3c2F)c2ccccc2c1 [P-0687, (3S,4R)-1-(4-((1R,5S)-3,8-diazabicyclo[3.2.1]octan-3-yl)-8-fluoro-7-(3-hydroxynaphthalen-1-yl)quinazolin-2-yl)pyrrolidine-3,4-diol] | 0.0001 to 10 | 100 to 1000
NCCCN1CCC[C@H]1COc1nc(N2C[C@H]3CC[C@@H](C2)N3)c2ccc(-c3cc(O)cc4ccccc34)c(F)c2n1 [P-0675, 4-(2-(((S)-1-(3-aminopropyl)pyrrolidin-2-yl)methoxy)-4-((1R,5S)-3,8-diazabicyclo[3.2.1]octan-3-yl)-8-fluoroquinazolin-7-yl)naphthalen-2-ol] | 0.0001 to 10 | 0.0001 to 10
NC(=O)CCN1[C@@H]2CC[C@H]1CN(c1nc(OCC34CCCN3CCC4)nc3c(F)c(-c4cc(O)cc5ccccc45)ccc13)C2 [P-0642, 3-((1R,5S)-3-(8-fluoro-7-(3-hydroxynaphthalen-1-yl)-2-((tetrahydro-1H-pyrrolizin-7a(5H)-yl)methoxy)quinazolin-4-yl)-3,8-diazabicyclo[3.2.1]octan-8-yl)propanamide] | 0.0001 to 10 | 0.0001 to 10
Fc1cc2c(N3C[C@H]4CC[C@@H](C3)N4)nc(OCC34CCCN3CCC4)nc2c(F)c1-c1c[nH]c2c(F)ccc(F)c12 [P-0746, 4-((1R,5S)-3,8-diazabicyclo[3.2.1]octan-3-yl)-7-(4,7-difluoro-1H-indol-3-yl)-6,8-difluoro-2-((tetrahydro-1H-pyrrolizin-7a(5H)-yl)methoxy)quinazoline] | 0.0001 to 10 | 10 to 100
CN(C)CCNc1nc(N2C[C@H]3CC[C@@H](C2)N3)c2ccc(-c3cc(O)cc4ccccc34)cc2n1 [P-0022, 4-(4-((1R,5S)-3,8-diazabicyclo[3.2.1]octan-3-yl)-2-((2-(dimethylamino)ethyl)amino)quinaz-olin-7-yl)naphthalen-2-ol] | 0.0001 to 10 | 10 to 100
CN1C[C@H](O)C[C@H]1COc1nc(N2C[C@H]3CC[C@@H](C2)N3)c2ccc(-c3cc(O)cc4ccccc34)c(F)c2n1 [P-0659, (3R,5S)-5-(((4-((1R,5S)-3,8-diazabicyclo[3.2.1]octan-3-yl)-8-fluoro-7-(3-hydroxynaphthalen-1-yl)quinazolin-2-yl)oxy)methyl)-1-methylpyrrolidin-3-ol] | 0.0001 to 10 | 0.0001 to 10
Oc1cc(-c2ccc3c(N4C[C@H]5CC[C@@H](C4)N5)nc(CNC4CC(O)C4)nc3c2)c2ccccc2c1 (stereo partly drawn) [P-0670, 4-(4-((1R,5S)-3,8-diazabicyclo[3.2.1]octan-3-yl)-2-(((3-hydroxycyclobutyl)amino)methyl)quin-azolin-7-yl)naphthalen-2-ol] | 0.0001 to 10 | 100 to 1000
CC(=O)NCCc1nc(N2C[C@H]3CC[C@@H](C2)N3)c2ccc(-c3cc(O)cc4ccccc34)c(F)c2n1 [P-0770, N-(2-(4-((1R,5S)-3,8-diazabicyclo[3.2.1]octan-3-yl)-8-fluoro-7-(3-hydroxynaphthalen-1-yl)quinazolin-2-yl)ethyl)acetamide] | 0.0001 to 10 | 10 to 100
CN1CCC[C@H]1COc1nc(N2C[C@H]3CC[C@@H](C2)N3)c2cc(F)c(-c3c[nH]c4ccc(F)cc34)c(F)c2n1 [P-0726, 4-((1R,5S)-3,8-diazabicyclo[3.2.1]octan-3-yl)-6,8-difluoro-7-(5-fluoro-1H-indol-3-yl)-2-(((S)-1-methylpyrrolidin-2-yl)methoxy)quinazoline] | 0.0001 to 10 | 10 to 100
Fc1cc(F)c2[nH]cc(-c3c(F)cc4c(N5C[C@H]6CC[C@@H](C5)N6)nc(OCC56CCCN5CCC6)nc4c3F)c2c1 [P-0747, 4-((1R,5S)-3,8-diazabicyclo[3.2.1]octan-3-yl)-7-(5,7-difluoro-1H-indol-3-yl)-6,8-difluoro-2-((tetrahydro-1H-pyrrolizin-7a(5H)-yl)methoxy)quinazoline] | 0.0001 to 10 | 10 to 100
CC(C)(O)COc1nc(N2C[C@H]3CC[C@@H](C2)N3)c2ccc(-c3cc(O)cc4ccccc34)c(F)c2n1 [P-0768, 4-(4-((1R,5S)-3,8-diazabicyclo[3.2.1]octan-3-yl)-8-fluoro-2-(2-hydroxy-2-methylpropoxy)quinazolin-7-yl)naphthalen-2-ol] | 0.0001 to 10 | 10 to 100
CN1CCC[C@H]1COc1nc(N2C[C@H]3CC[C@@H](C2)N3S(N)(=O)=O)c2ccc(-c3cc(O)cc4ccccc34)c(F)c2n1 [P-0663, (1R,5S)-3-(8-fluoro-7-(3-hydroxynaphthalen-1-yl)-2-(((S)-1-methylpyrrolidin-2-yl)methoxy)quinazolin-4-yl)-3,8-diazabicyclo[3.2.1]octane-8-sulfonamide] | 0.0001 to 10 | 0.0001 to 10
CN(C)CCOc1nc(N2C[C@H]3CC[C@@H](C2)N3)c2ccc(-c3cc(O)cc4ccccc34)c(F)c2n1 [P-0753, 4-(4-((1R,5S)-3,8-diazabicyclo[3.2.1]octan-3-yl)-2-(2-(dimethylamino)ethoxy)-8-fluoroquinazolin-7-yl)naphthalen-2-ol] | 0.0001 to 10 | 0.0001 to 10
CN1CCN(c2nc(N3C[C@H]4CC[C@@H](C3)N4)c3ccc(-c4cc(O)cc5ccccc45)c(F)c3n2)CC1 [P-0684, 4-(4-((1R,5S)-3,8-diazabicyclo[3.2.1]octan-3-yl)-8-fluoro-2-(4-methylpiperazin-1-yl)quinazolin-7-yl)naphthalen-2-ol] | 0.0001 to 10 | 100 to 1000
CN1CCC[C@H]1COc1nc(N2C[C@H]3CC[C@@H](C2)N3)c2cc(F)c(-c3c[nH]c4ncccc34)c(F)c2n1 [P-0780, 4-((1R,5S)-3,8-diazabicyclo[3.2.1]octan-3-yl)-6,8-difluoro-2-(((S)-1-methylpyrrolidin-2-yl)methoxy)-7-(1H-pyrrolo[2,3-b]pyridin-3-yl)quinazoline] | 10 to 100 | 100 to 1000
CN1CCC[C@H]1COc1nc(N2C[C@H]3CC[C@@H](C2)N3)c2ccc(-c3cc(=O)[nH]c4ccccc34)c(F)c2n1 [P-0761, 4-(4-((1R,5S)-3,8-diazabicyclo[3.2.1]octan-3-yl)-8-fluoro-2-(((S)-1-methylpyrrolidin-2-yl)methoxy)quinazolin-7-yl)quinolin-2(1H)-one] | 0.0001 to 10 | 100 to 1000
O=C1CCC(COc2nc(N3C[C@H]4CC[C@@H](C3)N4)c3ccc(-c4cc(O)cc5ccccc45)c(F)c3n2)N1 (stereo partly drawn) [P-0802, 5-(((4-((1R,5S)-3,8-diazabicyclo[3.2.1]octan-3-yl)-8-fluoro-7-(3-hydroxynaphthalen-1-yl)quinazolin-2-yl)oxy)methyl)pyrrolidin-2-one] | 0.0001 to 10 | 10 to 100
